Reference: PubChem BioAssay AID248 (DTP/NCI, 2004)
Values joined by “and” are separate entries in the source; they are usually repeats but may differ in a detail not shown here. Equal values may be shown once. Inconclusive results and toxic doses are left out. Cut-off read from the data, not from the text of the source: active = T/C of 150% or more; inactive = T/C below 125%.

Tested on: L1210 leukemia ip in BDF1 mice, survival T/C
Assay: NCI In Vivo Anticancer Drug Screen. Data for tumor model L1210 Leukemia (intraperitoneal) in B6D2F1 (BDF1) mice
Details: endpoint: mean survival time, higher = longer survival
Outline: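 Survival endpoint. Drug-treated group vs vehicle group, expressed as T divided by C. Tumor passaged by transplantation.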

[1] = dose: 100.0 mg/kg/injection, schedule: Q04DX002 (ip), vehicle: saline with Tween-80
[2] = dose: 200.0 mg/kg/injection, schedule: Q04DX002 (ip), vehicle: saline with Tween-80
[3] = dose: 100.0 mg/kg/injection, schedule: Q04DX003 (ip), vehicle: Klucel (hydroxypropylcellulose) (HPC)
[4] = dose: 200.0 mg/kg/injection, schedule: Q04DX003 (ip), vehicle: Klucel (hydroxypropylcellulose) (HPC)
[5] = dose: 400.0 mg/kg/injection, schedule: Q04DX003 (ip), vehicle: Klucel (hydroxypropylcellulose) (HPC)
[6] = dose: 100.0 mg/kg/injection, schedule: Q04DX003 (ip), vehicle: saline
[7] = dose: 200.0 mg/kg/injection, schedule: Q04DX003 (ip), vehicle: saline
[8] = dose: 400.0 mg/kg/injection, schedule: Q04DX003 (ip), vehicle: saline
[9] = dose: 75.0 mg/kg/injection, schedule: Q01DX001 (ip), vehicle: saline
[10] = dose: 100.0 mg/kg/injection, schedule: Q01DX001 (ip), vehicle: saline
[11] = dose: 200.0 mg/kg/injection, schedule: Q01DX001 (ip), vehicle: saline
[12] = dose: 100.0 mg/kg/injection, schedule: Q01DX001 (ip), vehicle: Klucel (hydroxypropylcellulose) (HPC)
[13] = dose: 200.0 mg/kg/injection, schedule: Q01DX001 (ip), vehicle: Klucel (hydroxypropylcellulose) (HPC)
[14] = dose: 400.0 mg/kg/injection, schedule: Q01DX001 (ip), vehicle: Klucel (hydroxypropylcellulose) (HPC)
[15] = dose: 400.0 mg/kg/injection, schedule: Q01DX001 (ip), vehicle: saline
[16] = dose: 100.0 mg/kg/injection, schedule: Q04DX003 (ip), vehicle: saline with Tween-80
[17] = dose: 200.0 mg/kg/injection, schedule: Q04DX003 (ip), vehicle: saline with Tween-80
[18] = dose: 400.0 mg/kg/injection, schedule: Q04DX003 (ip), vehicle: saline with Tween-80
[19] = dose: 100.0 mg/kg/injection, schedule: Q04DX002 (ip), vehicle: saline
[20] = dose: 200.0 mg/kg/injection, schedule: Q04DX002 (ip), vehicle: saline
[21] = dose: 400.0 mg/kg/injection, schedule: Q04DX002 (ip), vehicle: saline
[22] = dose: 100.0 mg/kg/injection, schedule: Q01DX009 (ip), vehicle: Klucel (hydroxypropylcellulose) (HPC)
[23] = dose: 200.0 mg/kg/injection, schedule: Q01DX009 (ip), vehicle: Klucel (hydroxypropylcellulose) (HPC)
[24] = dose: 400.0 mg/kg/injection, schedule: Q01DX009 (ip), vehicle: Klucel (hydroxypropylcellulose) (HPC)
[25] = dose: 150.0 mg/kg/injection, schedule: Q01DX001 (ip), vehicle: saline
[26] = dose: 50.0 mg/kg/injection, schedule: Q01DX009 (ip), vehicle: saline
[27] = dose: 100.0 mg/kg/injection, schedule: Q01DX009 (ip), vehicle: saline
[28] = dose: 200.0 mg/kg/injection, schedule: Q01DX009 (ip), vehicle: saline

Measured: T/C

O=S1(=O)CCCCC1=C(c1ccccc1)c1ccccc1
inactive: [1] 89 % of control | [2] 89 % of control

O=c1ccc2c([nH]1)CCCCC2
inactive: [3] 106 % of control | [4] 100 % of control | [5] 95 % of control

C=C(C)/C=C(\C)CC(=C)C
inactive: [6] 97 % of control | [7] 105 % of control | [8] 96 % of control

Cc1[nH]c(=S)[nH]c(=O)c1CC(O)c1ccccc1 (stereo unspecified)
inactive: [3] 92 % of control | [6] 92 % of control | [7] 94 % of control | [5] 87 % of control | [8] 89 % of control

C1=C(N2CCCCC2)C2CCC1C2 (stereo unspecified)
inactive: [9] 99 % of control

CC(C)C1SC(=S)NC1=O (stereo unspecified)
inactive: [10] 88 % of control | [11] 95 % of control

S=C(NNc1ccccc1)Nc1ccccc1
inactive: [12] 93 % of control | [13] 103 % of control | [14] 95 % of control

CS(=O)(=O)OCCCCCCOCCCCOCCCCOCCCCCCOS(C)(=O)=O
inactive: [12] 92 % of control | [13] 93 % of control | [14] 93 % of control

Cn1cc(C(=O)O)c(=O)c2ccc(/C=C/c3ccc([N+](=O)[O-])o3)nc21
inactive: [10] 92 % of control | [11] 101 % of control | [15] 103 % of control

Cc1ccc(N2CCN(c3ccc([N+](=O)[O-])cc3)CC2)cc1Cl
inactive: [16] 100 % of control | [17] 100 % of control | [18] 98 % of control

Clc1ccccc1C(N1CCCCC1)C(Cl)(Cl)Cl (stereo unspecified)
inactive: [19] 92 % of control | [20] 90 % of control | [21] 92 % of control

CSc1ccc(NC(=O)COc2ccccc2)cc1
inactive: [22] 102 % of control | [23] 98 % of control | [24] 98 % of control

c1ccc(CCCCc2ccc(CCCCc3ccccc3)cc2)cc1
inactive: [10] 101 % of control | [11] 93 % of control | [15] 93 % of control

Oc1[nH]c(=S)sc1/C=C1\C=Nc2ccccc21
inactive: dose: 50.0 mg/kg/injection, schedule: Q01DX001 (ip), vehicle: carboxymethylcellulose (CMC) 90 % of control | dose: 100.0 mg/kg/injection, schedule: Q01DX001 (ip), vehicle: carboxymethylcellulose (CMC) 92 % of control | dose: 200.0 mg/kg/injection, schedule: Q01DX001 (ip), vehicle: carboxymethylcellulose (CMC) 90 % of control | dose: 400.0 mg/kg/injection, schedule: Q01DX001 (ip), vehicle: carboxymethylcellulose (CMC) 90 % of control

CC(=O)CSC(=S)OC(C)C
inactive: [19] 112 % of control | [20] 94 % of control | [21] 105 % of control

CCOC(=O)c1ccc[n+](Cc2ccccc2)c1
inactive: [9] 101 % of control | [25] 106 % of control | dose: 300.0 mg/kg/injection, schedule: Q01DX001 (ip), vehicle: saline 98 % of control

OC(COc1cccc2ccccc12)CN1CCN(c2ccc(Cl)cc2)CC1 (stereo unspecified)
inactive: [10] 98 % of control | [11] 101 % of control | [15] 97 % of control

CCCCCCCCCCCCCCCC(=O)NCC[N+](CC)(CC)Cc1ccc(C[N+](CC)(CC)CCNC(=O)CCCCCCCCCCCCCCC)cc1
inactive: [9] 98 % of control

COC(=O)COc1ccc(Cl)cc1C(=O)O
inactive: [16] 94 % of control | [17] 92 % of control

CC(C)CC(C)c1c(N)nc(N)[nH]c1=O (stereo unspecified)
inactive: [12] 97 % of control | [13] 103 % of control | [14] 109 % of control

CN(C)C1C=CS(=O)(=O)C1 (stereo unspecified)
inactive: [12] 106 % of control | [13] 106 % of control

Cc1cc(C)c([I+]c2ccccc2C(=O)[O-])c(C)c1
inactive: dose: 50.0 mg/kg/injection, schedule: Q01DX001 (ip), vehicle: saline 97 % of control | [10] 105 % of control | [11] 100 % of control | [15] 103 % of control

OC(CCN1CCOCC1)c1cc2ccccc2o1 (stereo unspecified)
inactive: dose: 75.0 mg/kg/injection, schedule: Q04DX003 (ip), vehicle: saline with Tween-80 102 % of control | dose: 150.0 mg/kg/injection, schedule: Q04DX003 (ip), vehicle: saline with Tween-80 100 % of control

CCCC(=O)/C=C/c1ccc(C)cc1
inactive: [6] 96 % of control | [7] 112 % of control | [8] 96 % of control

O=C(c1ccccc1[N+](=O)[O-])C(Br)C(Br)c1cccc2ccccc12 (stereo unspecified)
inactive: dose: 50.0 mg/kg/injection, schedule: Q01DX009 (ip), vehicle: saline with Tween-80 96 % of control and 91 % of control | dose: 100.0 mg/kg/injection, schedule: Q01DX001 (ip), vehicle: saline with Tween-80 96 % of control | dose: 100.0 mg/kg/injection, schedule: Q01DX009 (ip), vehicle: saline with Tween-80 93 % of control and 94 % of control | [1] 93 % of control | [16] 90 % of control | dose: 200.0 mg/kg/injection, schedule: Q01DX001 (ip), vehicle: saline with Tween-80 96 % of control | dose: 200.0 mg/kg/injection, schedule: Q01DX009 (ip), vehicle: saline with Tween-80 86 % of control and 89 % of control | [2] 88 % of control and 90 % of control | [17] 91 % of control | dose: 400.0 mg/kg/injection, schedule: Q01DX001 (ip), vehicle: saline with Tween-80 100 % of control | [18] 88 % of control

[Cl][Pt+2][Cl].[NH-]C(CCCN)C(=O)O.[NH-]C(CCCN)C(=O)O (stereo unspecified)
inactive: dose: 50.0 mg/kg/injection, schedule: Q04DX003 (ip), vehicle: saline with Tween-80 103 % of control | [16] 104 % of control and 115 % of control | [17] 97 % of control and 102 % of control

CSc1nsc2nnc(N)n12
inactive: [9] 89 % of control | [25] 102 % of control

Cc1ccc(N(CCCl)CCCl)cc1NC(=O)c1ccccc1
inactive: dose: 100.0 mg/kg/injection, schedule: Q01DX001 (ip), vehicle: other 102 % of control | dose: 200.0 mg/kg/injection, schedule: Q01DX001 (ip), vehicle: other 102 % of control | dose: 400.0 mg/kg/injection, schedule: Q01DX001 (ip), vehicle: other 109 % of control

CCc1nc(=O)c2ccccc2n1C
inactive: dose: 1.5 mg/kg/injection, schedule: Q01DX001 (ip), vehicle: saline 100 % of control | dose: 3.0 mg/kg/injection, schedule: Q01DX001 (ip), vehicle: saline 95 % of control | dose: 6.0 mg/kg/injection, schedule: Q01DX001 (ip), vehicle: saline 107 % of control

COc1ccc(C(C(N)=O)N2CCOCC2)cc1 (stereo unspecified)
inactive: [22] 98 % of control | [3] 95 % of control | [23] 100 % of control | [4] 98 % of control | [24] 97 % of control | [5] 104 % of control

CCO/C=C/C(=O)NC(=O)NC1CC(O)C(CO)C1 (stereo unspecified)
inactive: [26] 104 % of control | [27] 107 % of control | [28] 93 % of control

CC1=CC(=O)NP(=O)(OC2CCCCC2)N1 (stereo unspecified)
inactive: dose: 100.0 mg/kg/injection, schedule: Q01DX005 (ip), vehicle: sodium bicarbonate 91 % of control

CC(=O)OCC1OC(OC(C)=O)C(O)C(OC(C)=O)C1OC(C)=O (stereo unspecified)
inactive: [12] 113 % of control | [13] 102 % of control | [14] 117 % of control

COC1=CCC2C(=O)OC(=O)C2C1 (stereo unspecified)
inactive: dose: 25.0 mg/kg/injection, schedule: Q01DX009 (ip), vehicle: saline 90 % of control | [26] 94 % of control | [27] 100 % of control | [28] 109 % of control | dose: 400.0 mg/kg/injection, schedule: Q01DX009 (ip), vehicle: saline 100 % of control

O=C(O)CCC(=O)c1ccc2ccc3cccc4ccc1c2c34
inactive: [10] 98 % of control | [11] 102 % of control | [15] 103 % of control

NNC(=O)CNc1cccc(Br)c1
inactive: dose: 50.0 mg/kg/injection, schedule: Q04DX002 (ip), vehicle: Klucel (hydroxypropylcellulose) (HPC) 101 % of control and 92 % of control | dose: 100.0 mg/kg/injection, schedule: Q04DX002 (ip), vehicle: Klucel (hydroxypropylcellulose) (HPC) 114 % of control and 120 % of control | dose: 200.0 mg/kg/injection, schedule: Q04DX002 (ip), vehicle: Klucel (hydroxypropylcellulose) (HPC) 108 % of control

C=CCNC(=S)N/N=C\c1cc(OC)c(OC)c(OC)c1
inactive: [16] 96 % of control | [17] 94 % of control | [18] 98 % of control
